Experimental data as given in PMC8757871, “Bridging the Antimicrobial Activity of Two Lactoferricin Derivatives in E. coli and Lipid-Only Membranes” (Frontiers in Medical Technology, 2021).

Experiments:
E. coli K12 5K = assay: ζ-potential estimate of the maximum number of surface-adsorbed AMPs; assay type: cell-based, Escherichia coli; settings: for fraction of cell associated peptides that do not enter inner compartments: at bacteria inhibition levels of 10%; for NPmax/NB, ratio of surface-adsorbed to cell-partitioned AMPs (upper boundary): at the MIC
Procedure: DLS and ζ-potential measurements were carried out with a Zetasizer Nano ZSP (Malvern Panalytical, Malvern, UK). E. coli suspensions were incubated with a given AMP concentration at 37°C for 1 h prior to each measurement. […] Control samples (no AMPs) were suspended and incubated in buffer alone. […] Because of the high conductivity of PBS, the electrode voltage was set to 4 V for ζ-potential measurements to keep currents below 1 mA. Further, measurements were paused for 180 s between individual runs. This prevented Joule heating leading to sample denaturation and electrode blackening. Experiments were repeated three times on different preparations, each consisting of at least six measurements. Reported ζ-potential values are given by the median of the corresponding measurements (i.e., from at least 18 values) and errors were derived using the median absolute deviations.
Remembering that ζ-potential values are sensitive only to the charges exposed to the outside of any particle, including bacteria, we can obtain upper boundaries for the number of surface adsorbed peptides. Given the high abundance of lipopolysaccharides (LPS) in the outer leaflet (about 70–90 vol%) of Gram-negative bacteria, as compared to other charged lipid species such as PG and CL (<2 vol%) and membrane proteins (7–20 vol%) ([40]), it is justified to assume that LPS dominates the surface potential of E. coli. Then, following considerations put forth for peptides partitioning in liposomes ([31], [41]), the ratio of ζ-potential values in the presence and absence of AMPs is […]
(9) ζ/ζ0≈σ/σ0≃(S0/S)∑iNizi+NPzP/NLPS0zLPS, where (σ, σ0) and (S, S0) are the corresponding surface charge densities and cell surface areas, respectively. Further, NLPS0 is the initial number of LPS molecules in the outer leaflet, with a nominal charge zLPS ≃ −6 ([42]); NP is the number of surface adsorbed AMPs of nominal charge zP ≃ +5 ([20]); and ∑iNizi=NLPSzLPS+NPGzPG+NCLzCL considers anionic lipids that translocate into the outer leaflet due to AMP activity ([3], [6], [18]). This term also accounts for a possible loss of LPS molecules in the outer leaflet due to vesiculation processes ([25]). Note that Equation (9) is only valid for |ζ| ≤ 25 mV, in which range ζ ∝ σ ([43]). […] Rearranging Equation (9) leads to […]
(13) NPmax/NLPS0≈(zLPS/zP)(ζ/ζ0-1), where NPmax is the upper boundary of surface adsorbed peptides. […] For example, using DLS, we measured a hydrodynamic diameter of E. coli K12 2RH = 980 ± 30 nm, from which we calculate S0≃4.5×10^6 nm^2, approximating the bacteria's shape with a cylinder of radius r and length l using RH2≃r^2/2+l^2/12 and r ~ 400 nm ([47]). […]

[1] = ANTS/DPX dye leakage assay and equi-activity partitioning analysis; settings: for K (mole fraction partitioning coefficient) / RB ([P]B/[L]) / [P]W (peptide concentration in the water phase): fit of Equation (4), [L] = (1−20) mM, [P] = (0.05−2) mM, HBS
Procedure: All hydrated samples were equilibrated for 1 h at 40°C followed by 5 freeze-and-thaw cycles using liquid N2 and intermittent vortex-mixing. Large unilamellar vesicles (LUVs) were obtained by 31 extrusions with a handheld mini extruder (Avanti Polar Lipids, Alabaster, AL) using a 100 nm pore diameter polycarbonate filter. Vesicle size and polydispersity were determined via DLS using a Zetasizer NANO ZSP (Malvern Panalytical, Malvern, UK). ANTS/DPX-containing vesicles were separated from free ANTS/DPX by exclusion chromatography using a column filled with SephadexTM G-75 (Amersham Biosciences, Little Chalfont, UK) fine gel swollen in iso-osmotic HBS. Phospholipid concentrations for all samples were determined by phosphate analysis.
Dye leakage experiments were performed combining previously reported protocols ([20], [27]). […] Similar time protocols were applied previously ([27]) and are justified here based on separate time-resolved leakage experiments (Supplementary Figure 3) and Trp-fluorescence measurements (Figure 3), showing that a quasi steady state has been reached after 1 h. Before measurements, lipid/peptide solutions were diluted with HBS to a lipid concentration of 50 μM, and every measurement was repeated at least twice. Vesicle size was checked after each incubation period using DLS. Samples were excited at λ= 360 nm, and the intensity of the fluorescence emission peak at λ= 530 nm, Ip, was recorded with a slit width of 10 nm for both excitation and emission monochromators. Measurements were performed in quartz cuvettes in 2 ml of the iso-osmotic buffer on a Cary Eclipse Fluorescence Spectrophotometer (Varian/Agilent Technologies, Palo Alto, CA). The percentage of leakage, E%, was calculated according to the relation
(1) E%=Ip-Imin/Imax-Imin,
where Imin is the initial fluorescence without peptide, and Imax is the fluorescence corresponding to 100% leakage determined through the addition of a 1 vol% solution of Triton X-100. The initial, monotonic increase of E% values with increasing [P] was interpolated with a sigmoidal function. This enabled us to obtain peptide and lipid concentrations leading to a specific E% value, which can in turn be used to calculate the partitioning parameters (see section 2.3.1).
(4) [P]=RB[W]/K︸[P]W+RB[L]︸[P]B=RB([W]/K+[L]),

[2] = solubility of the peptide in buffer (stock preparation); assay type: physicochemical; settings: PBS / HBS stock solutions; acetic acid up to 0.3% and DMSO up to 3% vol/vol added
Procedure: Peptide stock solutions of LF11-215 and LF11-324 were prepared in PBS solution for bacteria and HBS solution for lipid vesicles. […] AMP concentrations of the stock solutions were determined by comparing against the absorption band of the aromatic amino acids with the spectrophotometer NanoDrop ND-1000 (Thermo Fisher Scientific, Waltham, MA). Peptide stock solutions were stored in silanized glass tubes until use.

[3] = POPG LUVs, leakage 10%, 1 h at 37°C
[4] = POPG LUVs, leakage 20%, 1 h at 37°C
[5] = POPG LUVs, leakage 40%, 1 h at 37°C

| Substance | fraction of cell associated peptides that do not enter inner compartments (E. coli K12 5K) | NPmax/NB, ratio of surface-adsorbed to cell-partitioned AMPs (upper boundary) (E. coli K12 5K) | K (mole fraction partitioning coefficient) [1, 3] | RB ([P]B/[L]) [1, 3] | [P]W (peptide concentration in the water phase) [1, 3] [mM] | K (mole fraction partitioning coefficient) [1, 4] | RB ([P]B/[L]) [1, 4] | [P]W (peptide concentration in the water phase) [1, 4] [mM] | K (mole fraction partitioning coefficient) [1, 5] | RB ([P]B/[L]) [1, 5] | [P]W (peptide concentration in the water phase) [1, 5] [mM] | ANTS/DPX leakage, maximum reached (sigmoidal increase up to) ([1]; POPG LUVs, 1 h at 37°C, increasing [P]) [%] | fraction of peptides partitioned into the lipid phase ([1]; POPG, at [L] ≃20 mM) [%] | solubility in buffer [2] |
| --- | --- | --- | --- | --- | --- | --- | --- | --- | --- | --- | --- | --- | --- | --- |
| H-FWRIRIRR-NH2 [LF11-215, H-FWRIRIRR-NH2] | ~ 5% | about 1% | 2.4 ± 0.7 ×10^4 | 36 ± 4 ×10^−3 | 0.08 ± 0.03 | 4.2 ± 0.4 ×10^4 | 55.9 ± 1.6 ×10^−3 | 0.073 ± 0.009 | 5.4 ± 1.4 ×10^4 | 72 ± 6 ×10^−3 | 0.08 ± 0.03 | ≤ 100 | > 90 |  |
| H-PFFWRIRIRR-NH2 [LF11-324, H-PFFWRIRIRR-NH2] | ~ 18% | ~5% |  |  |  |  |  |  |  |  |  |  |  | weak solubility |
